In patent US12377069B2, “Compounds, compositions, methods of using, and methods for preparing compounds” (UNIVERSITY OF LOUISVILLE RESEARCH FOUNDATION, INC., priority 2018, dated 2025):

Tests used:
Caco2 or HT29 cells = experiment: In vitro FITC-dextran permeability assay; type: cell-based, human; conditions: pretreatment 50 μM 24 h; LPS 50 ng/ml 2 h
Description: In vitro permeability study: For in vitro cellular permeability studies, Caco2 cells or HT29 cells (2×10^4 cells/cm^2) were seeded in 24-well Transwell® plates (Cornings; USA), on polyester membrane filters (pore size 0.4 μm, surface area 1.12 cm^2) (KOWAPRADIT et al. (2010) “In vitro permeability enhancement in intestinal epithelial cells (Caco-2) monolayer of water soluble quaternary ammonium chitosan derivatives” Aaps Pharmscitech, Vol. 11, pp. 497-508). Culture medium was added to both apical and basal chamber and the medium was changed every other day up to 21 days for Caco2 cells or 5-7 days for HT29 cells. For Caco2 cells, transepethelial electrical resistance (TEER) was calculated using EMD Millipore Millicell-ERS2 Volt-Ohm Meter (Millipore). Filters (with cell monolayer) showing more than 600 Ω·cm^2 were used for permeability study. After cells reach desired confluence (monolayered cells), cells were pre-treated with vehicle (0.01% DMSO) UroA (50 μM) and UAS03 […] for 24 hours. After treatment, monolayer was washed with PBS to remove any residual drug and 200 μL of LPS (50 ng/ml in HBSS) was added to each well and incubated for 2 hours. […] After 2 h, a sample from the basal chamber was withdrawn and FD4 concentration was determined using fluorescence 96-wells plate reader at excitation and emission wavelengths were 480 and 525 nm, respectively.

C57BL/6 mice [1] = experiment: In vivo Evans Blue permeability assay (LPS); parameters: species or system mouse; conditions: LPS 100 μg i.p.; for LPS-induced TNF-α levels in serum and BAL fluid: 20 mg/kg; for tissue accumulation of Evans Blue (lung and liver): 20 mg/kg after 1 h and 18 h
Description: Acute intoxication of alcohol can induce microvasculature leakage as well as direct exposure to endothelium leads to disruption of endothelial integrity. […] In addition, increased endothelial permeability enhances the extravasation of immune cells into liver leading to increased inflammation. To examine the effect of UroA/UAS03 on endothelial cell permeability, we utilized in vivo Evans Blue permeability assay. Briefly, C57BL/6 mice (n=4/group) were given LPS (100 μg) i.p. followed by treatment with UAS03 or UroA (20 mg/kg) after 1 h and 18 h. Evans blue (i.v.) was given to mice (24 h post LPS treatment) and 30 min later mice were euthanized and the Evans Blue from lung and liver tissues was extracted using formamide. The levels of Evans Blue was determined by OD at 620 nm. […] To evaluate direct impact of UroA or UAS03 on endothelial barrier function, we used in vivo Miles assay to test blood vessel permeability. We used vascular endothelial growth factor (VEGF) as vasodilator. In this assay, C57BL/6 mice (n=3 per group) were given vehicle or UroA or UAS03 (20 mg/kg; oral gavage). After 3 h, Evans blue (100 μL of 1% solution) was administered i.v. followed by intra-dermal administration of VEGF (2.5 ng/mouse) or PBS (control). After 30 min, mice were euthanized and the levels of Evans Blue in skin tissue surrounding the injection site was extracted and estimated as described previously (FIG. 36C). […] To understand molecular mechanisms of UroA/UAS03 mediated endothelial barrier function, we tested the effects of these compounds in Human Umbilical Vein Endothelial Cells (HUVECs). Endotoxins or inflammatory mediators are responsible for decreasing the cell-cell and cell-matrix adhesion leading to increased barrier gaps and permeability. The VE-Cadherin (CDH5), an adherins junction (AJ) protein, can maintain the integrity of endothelial junctions through homotypic interactions with adjacent cell.

Cyp1A1 = Cyp1A1 expression and enzyme activity in vitro (P450-Glo, EROD); type: cell-based, human; conditions: for Cyp1A1 enzyme activity in colon epithelial cells: HT29, 24 h, P450-Glo and EROD
Description: Measurment of Cyp1A1 enzyme activities in vitro. EROD assay: HT-29 cells (15,000 cells/well) treated with vehicle, UroA and UAS03 (24 hrs), were rinsed with HBSS buffer, and then fresh HBSS buffer was added along with 5 μM of 7-ethoxyresorufin. Cells were further incubated at 37° C. for 1 h. After the incubation time, fluorescence (Exc. 530 nm, Em. 580 nm) was measured and product (resorufin) formed was calculated from calibration standard and normalized with protein concentration.
P450-Glo Cyp1A1 luminiscence assay: HT29 cells (25,000 cells/well) were plated in 48 well plate. Cell were then treated with UroA (0.1, 1, 10, 25 and 50 μM) or UAS03 (0.1, 1, 10, 25 and 50 μM) or FICZ (0.1, 1, 10, 25 and 50 nM) for 24 hrs. After treatment, cells were washed to remove any residual drugs, and fresh medium containing Cyp1A1 substrate (as per protocol provided with kit Cat. #V8751; Promega) for 3 hr. After incubation, 25 μl of culture medium was removed from each well and transferred to a 96-well white opaque plate and 25 μl of luciferin detection reagent was added to initiate the luminescence reaction and plate was incubated at room temperature for 20 min. After incubation, luminescence was recorded in luminometer. The data reported as fold change over vehicle treatment.

C57B6/J mice = experiment: LPS-induced sepsis survival; type: in vivo, mouse; conditions: LPS 20 mg/kg i.p.; for survival of septic mice: compound 20 mg/kg i.p.
Description: UAS03 (Ether) attenuates septic mortality. C57B6/J mice were injected with lipopolysaccharide intra-peritoneally at a septic dose of 20 mg/kg. The treated animals received either Urolithin-A or UAS03 (Ether) at 20 mg/kg intraperitoneal injection.
Preventive and therapeutic effect of UAS03 (Ether) in septic animals. Animals were injected with LPS intraperitoneally at 20 mg/kg dose to induce sepsis. For Ether+LPS group animals were given UAS03 (20 mg/kg; intraperitoneal) 1 hour prior LPS injection. LPS+Ether group received UAS03 1 hour post LPS injection.

C57BL/6 mice [2] = experiment: 28-day repeated dose toxicity study; conditions: oral 20 or 40 mg/kg daily, 28 days
Description: 28-day repeated dose toxicity study: To evaluate toxicity of UroA and UAS03, we performed 28-days repeated dose toxicity study. Mice were fed (oral gavage) with UroA (20 and 40 mg/kg/day) and UAS03 (20 and 40 mg/kg/day) daily for 28 days. Body weight, food and water intake were assessed weekly. After 28 days, mice were sacrificed and gross examination of all major organs were performed. Blood was collected to obtain serum. Serum alanine aminotransferase (ALT) and asparate aminotransferase (AST) were analyzed using ALT/AST kit (BioVision) as per instructional manual.

[3] = test system: Human Umbilical Vein Endothelial Cells (HUVECs); experiment: HUVEC CDH5 expression and in vitro permeability; type: cell-based

| SMILES | LPS induced leakage of FITC-dextran into bottom chambers (Caco2 or HT29 cells) | LPS-induced TNF-α levels in serum and BAL fluid (C57BL/6 mice [1]) | tissue accumulation of Evans Blue (lung and liver) (C57BL/6 mice [1]) | Cyp1A1 enzyme activity in colon epithelial cells (Cyp1A1) | survival, pretreated (1 hour prior LPS) (C57B6/J mice; 20 mg/kg i.p.) [%] | survival, therapeutic group (1 hour post LPS) (C57B6/J mice; 20 mg/kg i.p.) [%] | survival of septic mice (C57B6/J mice) [%] | serum AST and ALT levels at day 28 (C57BL/6 mice [2]) | signs of toxicity (body weights, CBC counts, serum ALT and AST) (C57BL/6 mice [2]) | expression of CDH5 (VE-Cadherin) [3] | Cyp1A1 expression (RNA-Seq and real time PCR) (Cyp1A1; HT29, 50 μM, 24 h) |
| --- | --- | --- | --- | --- | --- | --- | --- | --- | --- | --- | --- |
| Oc1ccc2c(c1)COc1cc(O)ccc1-2 [UAS03, 6H-benzo[c]chromene-3,8-diol] | inhibited LPS induced leakage | reduced LPS-induced TNF-α levels | reduced tissue accumulation of Evans Blue | induced Cyp1A1 activity | 70 | 100 | 90 | no significant differences | did not exhibit any signs of toxicity | increased the expression of CDH5 | – |
| O=c1oc2cc(O)ccc2c2ccc(O)cc12 [UroA, 3,8-dihydroxy-6H-dibenzo[b,d]pyran-6-one] | inhibited LPS induced leakage | reduced LPS-induced TNF-α levels | reduced tissue accumulation of Evans Blue | induced Cyp1A1 activity | – | – | 20 | no significant differences | – | increased the expression of CDH5 | upregulated |
